Experimental findings from patent US20060264422A1, “Use of taurolidine as enhancer of the complement system” (priority 2005, published 2006) are described below.

The structures appear in SMILES notation.

The test system of one test is complement system. Nature of the test: CH50 assay (hemolysis of sensitized sheep erythrocytes by human serum). Format: biochemical. As to the method: Using the CH50 assay, it is possible to assess functionally the total activity of the complement system, especially the classic activation pathway. […] In accordance with the protocol, a dilution series (1:20-1:480) was prepared for each condition and washed sheep erythrocytes which had been preincubated with hemolysin reagent were then added. During subsequent incubation at 37° C. for exactly 1 hour the erythrocytes were lysed depending on the activity of the complement system. In each experiment, a negative control (no hemolysis), a sample with 50% hemolysis (CH50, by dilution with dist. water) and a sample with 100% hemolysis (CH100, by dilution with dist. water) were analyzed in each case. After a final centrifugation, in each case 1 ml of the supernatant of each sample was removed and the absorption at 541 nm was determined photometrically. The determined absorptions were finally plotted against the dilutions. The activity (or the ability to lyse) of the complement system under the respective conditions could be assessed by the shape of the curves (shift to the left=complement activation) and by determining the dilution at which 50% of the erythrocytes have been lysed.

The subject of another test is C3a. The test is described as follows: ELISA of complement anaphylatoxin C3a in serum. Format: biochemical, human. The procedure:
(§1) Complement anaphylatoxins C5a and C3a and the lytic complex (MAC, C5b-9) in the serum of healthy volunteers were determined quantitatively using commercially available ELISA (“enzyme-linked immunosorbent assay”) test systems. As described above, initially serum samples having various concentrations of taurolidine (0.1-5%, in parallel with samples containing Ringer solution in corresponding dilution ratios=controls) were incubated for 30 minutes at 37° C. The samples were then diluted according to the protocol of the manufacturer and pipetted into the wells of the microtiter plate. The subsequent incubation/washing steps were carried out according to the protocol of the manufacturer. […] The extinction was measured using an ELISA plate reader and the values were then converted to concentrations using the standard samples which had also been measured.

For another test, the system named is C5a. The test is described as follows: ELISA of complement anaphylatoxin C5a in serum. Format: biochemical, human. The procedure:
as §1

Test [1] relates to membrane attack complex (MAC, C5b-9). The test is described as follows: ELISA of lytic complex (MAC, C5b-9) in serum. It counts as biochemical, human. Conditions: all dosis ranges studied (0.1-5% taurolidine); FIG. 7. As to the method:
as §1
On the technique in general: An ELISA detects its analyte on a solid surface through an enzyme-linked reagent.

Setting [2] is: at 0.5% taurolidine (concentration maximum).

Turning to `O=S1(=O)CCN(CN2CCS(=O)(=O)NC2)CN1` [taurolidine, 4,4′-methylenebis-(1,2,4-thiadiazine-1,1-dioxide)], the “hemolytic activity (activity of the complement system)” value with complement system (human serum of healthy volunteers incubated with 0.1-1% taurolidine, 30 min, 37° C., FIGS. 1-3) was “significantly increases”. Also, the “complement activation (hemolytic activity), temperature dependence” value in the test with complement system (incubation at 0-4° C., FIG. 2) is “not at 0-4 °C”. Further, in the test on C3a (at 0.1% taurolidine (minimum)), the C3a result is on record as “no or even a tendency of reduced”. Also, in the test on C3a (setting [2]), the “formation of C3a” value is “enhances the formation”. Moreover, in the test on C3a (serum with taurolidine 0.1-5%, 30 min, 37° C., FIG. 4), the “concentration of complement component C3a compared to untreated serum” value was “increased compared to untreated serum”. The C5a entry in the test on C5a (at 0.1% taurolidine (minimum)) is “no or even a tendency of reduced”. Also, the “formation of C5a” value with C5a (setting [2]) was “enhances the formation”. Besides, the “concentration of complement component C5a compared to untreated serum” value in the test on C5a (serum with taurolidine 0.1-5%, 30 min, 37° C., FIGS. 5-6) was “increased compared to untreated serum”. The “serum concentration of the membrane attack complex (MAC)” value in test [1] is listed as “elevated significantly”.
